# Test results published in US6455541B1, “Suppression, by 5-lipoxygenase inhibitors, of bone resorption” (Board of Regents, The University of Texas System, priority 1994, dated 2002).
# “And” between values parts separate entries of the source, which are not always exact repeats. Equal entries are not always repeated. “Also recorded” adds a separate entry of the source. Where two headings read alike, the source gives them in different places.
# How the values were obtained:
# [1] = tested on: neonatal mouse calvariae; assay: Neonatal mouse (murine) calvarial assay, 45Ca release; assay type: cell-based
# Description: The assay was performed as described by Gowen et al. (1983). Timed pregnant mice were injected with ^45Ca 2 days before parturition. Half-calvaria were removed from the 1-2-day-old pups and preincubated for 24 h in BGJb medium at 37° C. in a humidified atmosphere of 5% CO2 before transfer to fresh media with or without test substances for 48 h. The bones were incubated for a further 72 h and media and bones collected. Bone-resorbing activity was expressed as the percentage of the total ^45Ca released into the medium.
# [2] = tested on: isolated avian osteoclasts; assay: TRAP activity in isolated avian osteoclasts; assay type: cell-based, Gallus domesticus
# Description: Avian osteoclasts were isolated from medullary bone of laying White Leghorn hens Gallus domesticus (Pioneer Animal Supply, Kingswheel, Ohio) as described previously by Zambonin-Zallone and Teti (1981). In brief, bone marrow suspensions from the medullary bone of femora were filtered through Nytex cloth (110 μm, t'etko, Elmsford, N.Y.), centrifuged for 5 min at 1200 rpm, and the cell pellet resuspended in 0.2% NaCl for 3 min to lyse erythrocytes. After layering the cells on 100% fetal bovine serum for 1 h, sedimented cells were further filtered through Nytex filters (55 μm). Cells were harvested, resuspended in α-minimal Eagle's medium (GIBCO) containing 10 fetal bovine serum, with penicillin (100 units/ml), streptomycin (100 μg/ml), and Ara-C, to inhibit proliferation of nonosteoclastic cells. Cells were plated in 24- or 48-well plates (Costar, Cambridge, Mass.) at 1×10^4 cells/well and incubated at 37° C. in 10% CO2 humidified air for 48 h, after which they were washed to remove nonadherent cells. When matured osteoclasts were observed experiments were begun and terminated within 48 h.
# (§1) Osteoclast TRAP activity was measured using fluorescence spectroscopy as described by Chambers et al. (1987) with minor modifications. In brief, media from osteoclast cultures were harvested and stored at −70° C. until ready for assay.
# (§2) The cells were washed with phosphate-buffered saline and harvested in 0.5 ml of Triton X-100 (0.05%, w/v). Aliquots of media or lysate 30 μl) were incubated with 170 μl of 2 mM methylumbelliferyl phosphate, pH 5.0, in 0.48 M acetate buffer (0.48 M sodium acetate, 0.48 M acetic acid, pH 5.0) and 30 mM tartaric acid. Samples were incubated for 30 min at 37° C. and the reaction terminated with 100 μl of stop solution containing 50 mM glycine, 50 mM EDTA, pH 10.4. Fluorescence was measured at excitation 360 nm and emission 448 nm using a fluorimeter (Fluoroskan, Flow Instruments). Enzyme activity was expressed as micromoles of methylumbelliferyl phosphate hydrolyzed/min/μg of protein and the protein content measured by the technique of Lowry et al. (1951).
# [3] = tested on: isolated 23C6(+) human giant cells of bone; assay: TRAP activity in isolated human giant cells; assay type: cell-based
# Description: as §1, §2
# Human giant cell tumors (normally discarded after surgery) were minced and passed through 1#40SS wire mesh screen, allowed to settle for 5 min, and the cell suspension above the sediment collected. […]
# [4] = tested on: isolated rat osteoclasts; assay: Disaggregated rat osteoclast pit formation assay on sperm whale dentine; assay type: cell-based
# Description: (§3) Quantitation of the effects of isolated osteoclasts on calcified matrices was determined using minor modifications of the disaggregated osteoclast resorption assay as described by Boyde et al. (1984). Sperm whale dentine (0.25×7×7 mm) was prepared using a Buehler low speed diamond saw (Buehler, Lake Bluff, Ill.) followed by sonication (15 min) in several changes of distilled water. Slices were sterilized using ultraviolet light.
# Neonatal Sprague-Dawley rats (2-3 days) were sacrificed by decapitation, the femurs and tibias were removed, scraped free of adherent tissue, and trimmed free of the epiphyses. The bones from one litter were combined and quickly minced using a scalpel blade in 2 ml of 199 medium and then vigorously mixed with a pipette in an 8-ml tube, allowed to settle for 10 s, and then 100 μl of the suspension was added to each well for a total of 16 wells in a 48-well microtiter plate containing sperm whale dentine (approximately four neonates are used per 16 wells). The cells were incubated at 37° C. for 30 min at which time the dentine was removed, washed in media, and placed in a fresh 48-well plate containing 250 μl of test medium.
# (§4) Osteoclasts were stained for TRAP and counted and then pit numbers were counted following toluidine blue (0.1% w/v) staining by light microscopy. The plan area of matrix resorbed was quantitated using a computer-assisted morphometric program on a Bioquant System IV analysis system (R & M Biometrics, Nashville, Tenn.).
# Quantitation of the effects of isolated neonatal rat osteoclasts on calcified matrices was determined using minor modifications of the disaggregated osteoclast resorption assay as described by Boyde et al (1984). Briefly rat osteoclasts isolated as described by Chambers et al. (1983) were dispersed on prewetted (AMEM plus 5% FBS) slices of sperm whale dentine. Cultures were performed in 48 well-microtiter plates in humidified air (10% CO2) at 37° C. in αMEM medium (one slice/well in 200 μl medium). Numbers of osteoclasts and resorption lacunae were quantitated as described above for the avian osteoclasts.
# [5] = tested on: isolated 23C6+ human giant cells; assay: Pit formation by isolated human giant cells on sperm whale dentine; assay type: cell-based
# Description: as §3, §4
# Human giant cell tumors (normally discarded after surgery) were minced and passed through 1#40SS wire mesh screen, allowed to settle for 5 min, and the cell suspension above the sediment collected. The cells were incubated with 23C6 monoclonal antibody that identifies the osteoclast vitronectin receptor (generously provided by Dr. Michael Horton) (1:10 dilution of hybridoma supernatant/10^6 cells) at 4° C. in serum-free medium for 30 min, after which immunomagnetic beads coated with anti-mouse IgG (Dynabead, Dynal, Inc., Great Neck, N.Y.) were added to the cell suspension. […]
# [6] = tested on: C433 cells; assay: Production of osteoclast-stimulating activity by C433 cells (conditioned medium bioassayed for TRAP in avian osteoclasts); assay type: cell-based, human; details: flurbiprofen 10^−5 M; indomethacin 10^−6 M; nordihydroguaiaretic acid 10^−6, 10^−5 or 10^−4 M
# Description: FIG. 3A, FIG. 3B, FIG. 3C and FIG. 3D. Chemical characterization of activity. FIG. 3A. C433-conditioned medium was treated with ultraviolet-light (UV) for 24 h or placed in a boiling water bath (100° C.) for 15 min and bioassayed. FIG. 3B. amino peptidase M (A), carboxypeptidase (C), or Pronase-CB (P) were incubated in the presence of C433-conditioned medium for 12 h at 37° C. FIG. 3C. […] The resultant conditioned medium was bioassayed for activity. FIG. 3D. […] Conditioned medium was bioassayed for induction of TRAP activity in avian osteoclasts.
# (§5) C433 cells were grown in 10% fetal bovine serum (Whittaker, Walkersville, Md.) 50% RPMI, 50% McCoys (Flow, McLean, Va.) until a density of 10^4 cells/ml was obtained, at which time the cells were harvested, washed, and placed in serum-free DMEM plus 10^−8 M, 1,25-(OH)2D3 for 48 h before harvest of conditioned medium. […] This conditioned medium was applied to a prewetted C18 Sep-Pak (Millipore, Waters, Milford, Mass.), and bound material was extracted using ethyl acetate. This material was dried under nitrogen and resuspended in water, it acetic acid and analyzed by high pressure measure liquid chromatography (HPLC) (Waters, Milford, Mass.) applied to a C8 semipreparative 25 cm×10 mm reverse phase column (Keystone Scientific, Inc., Bellefonte, Pa.) at 2 ml/min. The gradient was 0-100% methanol, 1% acetic acid over 60 min with 6-ml fractions collected. The fractions were dried under nitrogen, and those fractions to be assayed for osteoclast stimulating activity were stabilized with 20 μl of 10% bovine serum albumin. Fractions to be used for gas chromatography-mass spectrometric analysis were prepared for derivatization.
# [7] = tested on: C433 cells; assay: Radioimmunoassay of 5-HETE in C433-conditioned media; assay type: cell-based, human; details: +1,25-(OH)2 vitamin D3 10^−8 M, duplicate
# Description: The radioimmunoassays for 5-HETE were purchased from Advanced Magnetics, Inc. (Cambridge, Mass.).
# as §5, with “washed,” for “washed, and placed in serum-free DMEM plus 10^−8 M, 1,25-(OH)2D3 for 48 h before harvest of conditioned medium.”
# To confirm that C433-conditioned medium contained these 5-LO metabolites and that production was hormonally regulated, radioimmunoassays were performed for 5-HETE using commercially available kits. […]
# [8] = Lymphotoxin 5 × 10^−9M + NDGA 10^−5M
compound,measurement,setting,value
5-hydroxyeicosatetraenoic acid [5-HETE],stimulation of bone resorption in neonatal mouse calvariae (in words),[1],stimulated bone resorption
same,stimulation of TRAP activity in avian osteoclasts (in words),[2],stimulated TRAP activity
same,concentration of optimal stimulation of TRAP activity,[2]; 10^−8 M stimulates suboptimally,10^−10 M
same,stimulation of TRAP activity,"[2]; 10^−10 M, 48 h",maximally stimulated
same,stimulation of TRAP activity in human giant cells (in words),[3],stimulated TRAP activity
same,stimulation of TRAP activity,"[3]; 10^−10 M, 48 h",maximally stimulated
same,pit formation by isolated rat osteoclasts (in words),[4],caused pit formation
same,pit formation by human giant cells (in words),[5],caused pit formation
"CCCCC/C=C\C\C=C/C=C/C=C/[C@@H](SC[C@H](NC(=O)CC[C@H](N)C(=O)O)C(=O)NCC(=O)O)[C@@H](O)CCCC(=O)O [LTC4, leukotriene C4]",stimulation of pit formation,[5]; 10^−10 M,stimulated
"CC(Cc1ccc(O)c(O)c1)C(C)Cc1ccc(O)c(O)c1 (stereo not drawn) [NDGA, nordihydroguaiaretic acid]","inhibition of 1,25(OH)2 vitamin D3-induced bone resorption (in words)","[1]; 1,25(OH)2 vitamin D3 as factor",no significance was observed
same,"45Ca release, Factor + NDGA","[1]; 1,25D3 10^−10M + NDGA 10^−5M",31.7% and 29.2% and 32.5%
same,% Inhibition,"[1]; 1,25D3 10^−10M + NDGA 10^−5M",19.8% and 24.1%
same,"Ca^45 Release, LPS + NDGA",[1]; AAY4 LPS 25 μg/ml + NDGA 10^−5M,13.6%
same,"45Ca release, LPS + NDGA",[1]; AaY4 LPS 50 μg/ml + NDGA 10^−5M,22.2%
same,inhibition of LPS-induced bone resorption (in words),[1]; AaY4 LPS and/or WR14 LPS,significantly inhibited; also recorded: Significant inhibition
same,"45Ca release, Factor + NDGA",[1]; IL-1 5 × 10^−10M + NDGA 10^−5M,23.4% and 24.6%
same,% Inhibition,[1]; IL-1 5 × 10^−10M + NDGA 10^−5M,32.8%
same,inhibition of IL-1-induced bone resorption (in words),[1]; IL-1 as factor,significantly inhibits
same,"45Ca release, Factor + NDGA",[1]; [8],26.8% and 35.5%
same,% Inhibition,[1]; [8],31.7%
same,inhibition at 10 µM,"[1]; Mus musculus, 1,25D3 10^−10M + NDGA 10^−5M, read-out: % Inhibition",19.6%
same,inhibition at 10 µM,"[1]; Mus musculus, AAY4 LPS 25 μg/ml + NDGA 10^−5M, read-out: % Inhibition",120%
same,inhibition at 10 µM,"[1]; Mus musculus, AaY4 LPS 50 μg/ml + NDGA 10^−5M, read-out: % Inhibition",57.2%
same,inhibition at 10 µM,"[1]; Mus musculus, IL-1 5 × 10^−10M + NDGA 10^−5M, read-out: % Inhibition",30%
same,inhibition at 10 µM,"[1]; Mus musculus, Lymphotoxin 5 × 10^−9M + NDGA 10^−5M",48.8%
same,inhibition at 10 µM,"[1]; Mus musculus, TNF 2 × 10^−10M + NDGA 10^−5M, read-out: % Inhibition",43.2%
same,inhibition at 10 µM,"[1]; Mus musculus, WR14 LPS 50 ng/ml + NDGA 10^−5M, read-out: % Inhibition",57.6%
same,"45Ca release, Factor + NDGA",[1]; PTH 4 ng/ml + NDGA 10^−5M,30.6% and 31.2% and 28.6%
same,inhibition of PTH-induced bone resorption (in words),[1]; PTH as factor,One out of three experiments showed significant inhibition
same,"45Ca release, Factor + NDGA",[1]; TNF 2 × 10^−10M + NDGA 10^−5M,27.8% and 31.9%
same,% Inhibition,[1]; TNF 2 × 10^−10M + NDGA 10^−5M,33.5%
same,inhibition of TNF-induced bone resorption (in words),[1]; TNF as factor,significantly inhibits
same,% Inhibition,[1]; WR14 LPS 50 ng/ml + NDGA 10^−5M,40.8%
same,inhibition of lymphotoxin-induced bone resorption (in words),[1]; lymphotoxin as factor,significantly inhibits
same,NDGA inhibition of lipopolysaccharide-induced bone resorption,[1]; two different preparations of lipopolysaccharide,Greater than 50%
same,inhibition of PTH and PTHrP-induced bone resorption,"[4]; NDGA 10^−6M, MK886 1 μg/ml, ZM 230,487 10 ng/ml, 20 hours",inhibition of the bone resorption was seen
same,order of inhibitory effectiveness,"[4]; PTH and PTHrP-induced bone resorption, NDGA 10^−6M, MK886 1 μg/ml, ZM 230,487 10 ng/ml",ZM230487>MK886>NDGA
same,effect on production of C433 activity,[6],completely blocked
"C=C1/C(=C\C=C2/CCC[C@]3(C)[C@@H]([C@H](C)CCCC(C)(C)O)CC[C@@H]23)C[C@@H](O)C[C@@H]1O [1,25D3, 1,25 dihydroxyvitamin D3]","45Ca release, factor alone (Table IV)","[1]; 1,25D3 10^−10M, IL-1 1 × 10^−10M",37.2%
same,"45Ca release, Factor alone (Table II)","[1]; IL-1 5 × 10^−10M, TNF 2 × 10^−10M, Lymphotoxin 5 × 10^−9M, PTH 4 ng/ml, 1,25D3 10^−10M",35.3% and 31.8% and 37.0%
same,5-HETE in C433-conditioned media,[7]; 6 h,3.36 pg/mL and 3.53 pg/mL
same,5-HETE in C433-conditioned media,[7]; 12 h,11.07 pg/mL and 11.68 pg/mL
